We go through eleven molecules from ChEMBL document CHEMBL1201862, “PubChem BioAssay data set” (2004).

Among the test systems are SK-OV-3; HCT-15; COLO 205; MCF7; NCI-H522; T47D; HCT-116; NCI/ADR-RES; IGROV-1; Hs-578T; SNB-75; PC-3; OVCAR-8; EKVX; NCI-H460; TK-10; SN12C; A549; SF-295; SNB-19.
Holding throughout (experiment): DTP human tumour cell line panel, 48 h

The term GI50 denotes the concentration giving 50% growth inhibition.

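Exposure lasted 48 hours, with cells grown in 96-well plates and compounds tested at five concentrations. At the GI50, growth is halved.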 Activity calls are given as the source filed them. Rule as the data show it: active = GI50 up to about 1.1 µM and inactive = higher.

Regarding `c1ccc2nn(C3CCCO3)nc2c1` (stereo not drawn), the GI50 is > 100 µM (inactive) with SK-OV-3; over 100 µM in the test with HCT-15; > 100 µM (inactive) in the test on COLO 205; > 100 µM (inactive) in the test with MCF7; > 100 µM (inactive) in the test with NCI-H522; > 100 µM (inactive) in the test on T47D. The GI50 in the test on HCT-116, in the test on NCI/ADR-RES, with IGROV-1, with Hs-578T, with SNB-75 and in the test on PC-3 was > 100 µM (inactive) each time. Besides, the GI50 in the test with OVCAR-8, in the test with EKVX, in the test on NCI-H460, with TK-10, in the test on SN12C and with A549 was > 100 µM (inactive) each time. Also, the GI50 in the test on SF-295 was > 100 µM (inactive).

In the case of `COc1cc(/C=N\c2nc(-c3ccc(NS(=O)(=O)c4ccc(Cl)c(OC)c4)cc3)cs2)ccc1O`, the GI50 with SK-OV-3 is > 100 µM (inactive); in the test on HCT-15 it was over 100 µM; in the test on COLO 205, 30.1 µM (inactive); in the test on MCF7, 21 µM (inactive); with NCI-H522 it was 18.8 µM (inactive); in the test with T47D it was 17.4 µM (inactive). Moreover, the GI50 is 37.7 µM (inactive) in the test with HCT-116; > 100 µM (inactive) in the test on NCI/ADR-RES; 43.3 µM (inactive) in the test with IGROV-1; 62.5 µM (inactive) with Hs-578T; > 100 µM (inactive) in the test on SNB-19; 89.5 µM (inactive) in the test on SNB-75. Moreover, the GI50 is 50.8 µM (inactive) in the test on PC-3; 50.1 µM (inactive) in the test with OVCAR-8; 26.7 µM (inactive) with EKVX; 42.3 µM (inactive) in the test on SN12C; 74.6 µM (inactive) in the test on A549; > 100 µM (inactive) in the test on SF-295.

Turning to `O=C1C(Br)=C(C2=CC(=P(c3ccccc3)(c3ccccc3)c3ccccc3)C=C2)C(=O)C(Br)=C1C1=CC(=P(c2ccccc2)(c2ccccc2)c2ccccc2)C=C1`, the GI50 in the test with SK-OV-3 was > 100 µM (inactive); in the test on COLO 205 it was > 100 µM (inactive); with MCF7, > 100 µM (inactive); in the test on NCI-H522, 19.9 µM (inactive); in the test with T47D, > 100 µM (inactive); in the test on HCT-116, 99.1 µM (inactive). In addition, the GI50 in the test with NCI/ADR-RES is > 100 µM (inactive); with IGROV-1 it was 40.3 µM (inactive); in the test on Hs-578T, > 100 µM (inactive); with SNB-19, > 100 µM (inactive); in the test on SNB-75, > 100 µM (inactive); with PC-3, > 100 µM (inactive). Besides, the GI50 in the test on OVCAR-8 is > 100 µM (inactive); in the test on EKVX it was 19.9 µM (inactive); in the test with TK-10, 30.3 µM (inactive); with SN12C, > 100 µM (inactive); in the test with A549 it was > 100 µM (inactive); with SF-295, > 100 µM (inactive).

As to `O=P(Nc1ccccc1)(Oc1ccccc1)N1CCN(c2ccccc2)CC1` (stereo not drawn), the GI50 in the test on SK-OV-3 was 16.8 µM (inactive); in the test on HCT-15, 13.8 µM; in the test on COLO 205, 19.6 µM (inactive); with MCF7 it was 17.2 µM (inactive); in the test with NCI-H522, 4.85 µM (inactive); in the test on T47D it was 22.6 µM (inactive). For the same molecule, the GI50 in the test on HCT-116 was 16.8 µM (inactive); with NCI/ADR-RES, 17.6 µM (inactive); with IGROV-1 it was 20.8 µM (inactive); in the test on Hs-578T it was 17.9 µM (inactive); in the test with SNB-19, 15.8 µM (inactive); in the test on SNB-75, 15.2 µM (inactive). The GI50 is 18.1 µM (inactive) with PC-3; 21.9 µM (inactive) in the test on OVCAR-8; 17.4 µM (inactive) with EKVX; 17.4 µM (inactive) in the test with NCI-H460; 21.8 µM (inactive) with TK-10; 17.8 µM (inactive) in the test on SN12C. The GI50 is 17.5 µM (inactive) with A549 and 18.4 µM (inactive) in the test on SF-295.

As to `CSC1=C(C(=O)Nc2ccc(Cl)cc2)C(N)=NC1=O`, the GI50 in the test with SK-OV-3 was > 100 µM (inactive); in the test on HCT-15 it was over 100 µM; in the test with COLO 205, > 100 µM (inactive); with MCF7 it was > 100 µM (inactive); in the test on NCI-H522 it was > 100 µM (inactive); in the test on T47D, > 100 µM (inactive). Besides, the GI50 in the test on HCT-116 is > 100 µM (inactive); with NCI/ADR-RES it was > 100 µM (inactive); in the test on IGROV-1 it was 19.7 µM (inactive); in the test on Hs-578T, > 100 µM (inactive); in the test with SNB-19, > 100 µM (inactive); in the test on SNB-75, > 100 µM (inactive). The GI50 in the test with PC-3, in the test with OVCAR-8, in the test with EKVX, in the test on NCI-H460, in the test on TK-10 and with SN12C was > 100 µM (inactive) throughout. Also, in the test on A549, the GI50 was > 100 µM (inactive).

With `O=C(CCC(=O)c1ccsc1)c1ccsc1`, the GI50 in the test on SK-OV-3 is > 100 µM (inactive); in the test with HCT-15 it was over 100 µM; in the test on COLO 205, > 100 µM (inactive); in the test on MCF7 it was 74.8 µM (inactive); in the test with NCI-H522, > 100 µM (inactive); in the test with T47D, > 100 µM (inactive). Also, the GI50 in the test with HCT-116, in the test with NCI/ADR-RES, with IGROV-1, with Hs-578T, in the test with SNB-19 and in the test on SNB-75 was > 100 µM (inactive) each time. In addition, the GI50 in the test on PC-3, with OVCAR-8, in the test with NCI-H460, with TK-10, in the test on SN12C and in the test with A549 was > 100 µM (inactive) each time. In addition, the GI50 with SF-295 is > 100 µM (inactive).

On to `c1sc(NC2=NCCO2)c2c1CCCC2`, for which the GI50 in the test on SK-OV-3 is > 100 µM (inactive); with HCT-15, over 100 µM; in the test on COLO 205 it was > 100 µM (inactive); in the test with MCF7, > 100 µM (inactive); in the test on NCI-H522 it was > 100 µM (inactive); with T47D, 88.1 µM (inactive). The GI50 in the test with HCT-116, in the test on NCI/ADR-RES, in the test with IGROV-1, in the test with Hs-578T, with SNB-19 and in the test on SNB-75 was > 100 µM (inactive) throughout. Further, the GI50 is 99.8 µM (inactive) with PC-3; > 100 µM (inactive) in the test on OVCAR-8; > 100 µM (inactive) in the test on EKVX; > 100 µM (inactive) in the test on NCI-H460; > 100 µM (inactive) in the test on TK-10; > 100 µM (inactive) in the test on A549. For the same molecule, the GI50 in the test on SF-295 was > 100 µM (inactive).

Turning to `Cc1cc2c(cc1N)C(C)C1(CCC(=O)N2Cc2ccccc2)OCCO1` (stereo not drawn), the GI50 is > 100 µM (inactive) in the test with SK-OV-3; over 100 µM in the test on HCT-15; > 100 µM (inactive) with MCF7; > 100 µM (inactive) with NCI-H522; > 100 µM (inactive) in the test on T47D; > 100 µM (inactive) in the test on HCT-116. For the same molecule, the GI50 in the test on NCI/ADR-RES is > 100 µM (inactive); with IGROV-1, > 100 µM (inactive); in the test with Hs-578T, > 100 µM (inactive); in the test with SNB-19 it was > 100 µM (inactive); with SNB-75 it was 32.3 µM (inactive); in the test on PC-3 it was > 100 µM (inactive). Also, the GI50 in the test on OVCAR-8, in the test with EKVX, in the test with NCI-H460, with TK-10, in the test on SN12C and with A549 was > 100 µM (inactive) throughout. Further, the GI50 in the test with SF-295 was > 100 µM (inactive).

In the case of `CCOC(=O)Cc1cc(=O)[nH]c(-n2[nH]c(C)c(CCO)c2=O)n1`, the GI50 with SK-OV-3 is > 100 µM (inactive); with HCT-15, over 100 µM; in the test with COLO 205, > 100 µM (inactive); in the test with MCF7 it was > 100 µM (inactive); in the test with NCI-H522 it was > 100 µM (inactive); in the test with T47D, > 100 µM (inactive). For the same molecule, the GI50 in the test on HCT-116, in the test on NCI/ADR-RES, with IGROV-1, in the test on Hs-578T, in the test with SNB-19 and in the test with PC-3 was > 100 µM (inactive) throughout. In addition, the GI50 in the test on OVCAR-8, in the test with EKVX, in the test on NCI-H460, in the test with TK-10, in the test with SN12C and in the test with A549 was > 100 µM (inactive) in each case. Also, the GI50 with SF-295 is > 100 µM (inactive).

Turning to `C=CCc1cc(-c2cc(CC=C)c(O)c(CN(CC)CC)c2)cc(CN(CC)CC)c1O`, the GI50 in the test on SK-OV-3 was > 100 µM (inactive); in the test with HCT-15 it was 15.8 µM; in the test on COLO 205 it was 26.3 µM (inactive); in the test on MCF7, 58.5 µM (inactive); in the test on NCI-H522 it was 20.6 µM (inactive); in the test on T47D, 43 µM (inactive). The GI50 in the test with HCT-116 is 22 µM (inactive); in the test on NCI/ADR-RES, 73.1 µM (inactive); in the test with IGROV-1 it was > 67.6 µM (inactive); with Hs-578T, 28.5 µM (inactive); in the test on SNB-19 it was > 97.3 µM (inactive); in the test with SNB-75, > 100 µM (inactive). Besides, the GI50 in the test with PC-3 was 40.2 µM (inactive); with OVCAR-8, > 96.6 µM (inactive); in the test on EKVX, > 80.9 µM (inactive); in the test on NCI-H460, 21.3 µM (inactive); in the test on TK-10 it was 62.7 µM (inactive); in the test with SN12C it was 85.1 µM (inactive). Moreover, the GI50 is 71.6 µM (inactive) in the test with A549 and 33 µM (inactive) in the test with SF-295.

In the case of `CC(c1ccccc1)n1c2ccccc2c2c(N)ncnc21` (stereo not drawn), the GI50 was 14.2 µM (inactive) with SK-OV-3; 23.4 µM in the test with HCT-15; 20.7 µM (inactive) with MCF7; 13.6 µM (inactive) with NCI-H522; 15.5 µM (inactive) in the test on T47D; 21.5 µM (inactive) with HCT-116. Besides, the GI50 in the test with NCI/ADR-RES was 20.4 µM (inactive); in the test with IGROV-1, 18.9 µM (inactive); with Hs-578T, 18 µM (inactive); with SNB-19 it was 16.5 µM (inactive); in the test with SNB-75 it was 1.4 µM (inactive); in the test on PC-3, 17.7 µM (inactive). Besides, the GI50 was 17.1 µM (inactive) with OVCAR-8; 10.8 µM (inactive) in the test on EKVX; 24.3 µM (inactive) with NCI-H460; 17.1 µM (inactive) in the test with TK-10; 21.6 µM (inactive) in the test on A549; 17 µM (inactive) in the test with SF-295.
